Laboratory results published in US9540392B2, “Thienopyrimidines” (BAYER PHARMA AKTIENGESELLSCHAFT, priority 2012, dated 2017).

biological target: T1, human full-length MKNK1 (Homo sapiens, UniProt Q9BUB5, T385D); experiment: MKNK1 kinase high ATP assay (TR-FRET); type: biochemical; conditions: 2 mM ATP, after preincubation with MKNK1; read-out: MKNK1 IC50 (MKNK1 high ATP)
T1 construct: GST (N); purchased Carna Biosciences 02-145; host or cells: insect cells (baculovirus expression system)
Description: MKNK1-inhibitory activity at high ATP of compounds of the present invention after their preincubation with MKNK1 was quantified employing the TR-FRET-based MKNK1 high ATP assay as described in the following paragraphs.
As substrate for the kinase reaction the biotinylated peptide biotin-Ahx-[…] (C-terminus in amide form) was used, which can be purchased e.g. from the company Biosyntan (Berlin-Buch, Germany).
For the assay 50 nL of a 100 fold concentrated solution of the test compound in DMSO was pipetted into a black low volume 384 well microtiter plate (Greiner Bio-One, Frickenhausen, Germany), 2 μL of a solution of MKNK1 in aqueous assay buffer [50 mM HEPES pH 7.5, 5 mM MgCl2, 1.0 mM dithiothreitol, 0.005% (v/v) Nonidet-P40 (Sigma)] was added and the mixture was incubated for 15 min at 22° C. to allow pre-binding of the test compounds to the enzyme before the start of the kinase reaction. Then the kinase reaction was started by the addition of 3 μL of a solution of adenosine-tri-phosphate (ATP, 3.3 mM=>final conc. in the 5 μL assay volume is 2 mM) and substrate (0.1 μM=>final conc. in the 5 μL assay volume is 0.06 μM) in assay buffer and the resulting mixture was incubated for a reaction time of 30 min at 22° C. The concentration of MKNK1 was adjusted depending of the activity of the enzyme lot and was chosen appropriate to have the assay in the linear range, typical concentrations were in the range of 0.003 μg/mL. The reaction was stopped by the addition of 5 μL of a solution of TR-FRET detection reagents (5 nM streptavidine-XL665 [Cisbio Bioassays, Codolet, France] and 1 nM anti-ribosomal protein S6 (pSer236)-antibody from Invitrogen [#44921G] and 1 nM LANCE EU-W1024 Labeled ProteinG [Perkin-Elmer, product no. AD0071]) in an aqueous EDTA-solution (100 mM EDTA, 0.1% (w/v) bovine serum albumin in 50 mM HEPES pH 7.5).
The resulting mixture was incubated for 1 h at 22° C. to allow the formation of complex between the phosphorylated biotinylated peptide and the detection reagents. Subsequently the amount of phosphorylated substrate was evaluated by measurement of the resonance energy transfer from the Eu-chelate to the streptavidine-XL. Therefore, the fluorescence emissions at 620 nm and 665 nm after excitation at 350 nm were measured in a TR-FRET reader, e.g. a Rubystar (BMG Labtechnologies, Offenburg, Germany) or a Viewlux (Perkin-Elmer). The ratio of the emissions at 665 nm and at 622 nm was taken as the measure for the amount of phosphorylated substrate.

T1 sequence (Q9BUB5 1-424 isoform Q9BUB5-2 T344D): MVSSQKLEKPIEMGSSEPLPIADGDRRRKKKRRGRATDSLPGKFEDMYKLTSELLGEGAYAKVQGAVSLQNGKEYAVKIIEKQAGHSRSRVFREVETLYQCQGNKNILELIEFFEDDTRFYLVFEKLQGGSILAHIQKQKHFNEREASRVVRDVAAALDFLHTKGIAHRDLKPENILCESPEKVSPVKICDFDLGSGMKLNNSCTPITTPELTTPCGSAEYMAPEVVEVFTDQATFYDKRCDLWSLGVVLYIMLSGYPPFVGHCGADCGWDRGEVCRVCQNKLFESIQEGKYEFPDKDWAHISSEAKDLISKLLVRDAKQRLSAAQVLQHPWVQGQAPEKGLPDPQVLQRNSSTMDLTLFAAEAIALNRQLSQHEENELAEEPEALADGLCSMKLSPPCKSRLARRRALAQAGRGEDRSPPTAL

Structure (SMILES)	IC50 [nM]
COc1cccc(NC(=O)C2CCc3c(sc4ncnc(Nc5ccc6[nH]ncc6c5)c34)C2)c1 (stereo not drawn) [Example 13, 4-(1H-indazol-5-ylamino)-N-(3-methoxyphenyl)-5,6,7,8-tetrahydro[1]benzothieno[2,3-d]pyrimidine-7-carboxamide]	7
NS(=O)(=O)c1ccc(CNC(=O)C2CCc3c(sc4ncnc(Nc5ccc6[nH]ncc6c5)c34)C2)cc1 (racemic) [Example 121, (RS)-4-(1H-indazol-5-ylamino)-N-(4-sulfamoylbenzyl)-5,6,7,8-tetrahydro[1]benzothieno[2,3-d]pyrimidine-7-carboxamide]	4
CCN(CCO)C(=O)C1CCc2c(sc3ncnc(Nc4cc5cn[nH]c5cc4OC(C)C)c23)C1 (racemic) [Example 214, (RS)—N-ethyl-N-(2-hydroxyethyl)-4-{[6-(propan-2-yloxy)-1H-indazol-5-yl]amino}-5,6,7,8-tetrahydro[1]benzothieno[2,3-d]pyrimidine-7-carboxamide]	0.3
CC(C)Oc1cc2[nH]ncc2cc1Nc1ncnc2sc3c(c12)CCC(C(=O)N1CC2(COC2)C1)C3 (racemic) [Example 206, (RS)-2-Oxa-6-azaspiro[3.3]hept-6-yl(4-{[6-(propan-2-yloxy)-1H-indazol-5-yl]amino}-5,6,7,8-tetrahydro[1]benzothieno[2,3-d]pyrimidin-7-yl)methanone]	1
CCOc1cc2[nH]ncc2cc1Nc1ncnc2sc3c(c12)CCC(C(=O)O)C3 (racemic) [Example 210, (RS)-4-[(6-Ethoxy-1H-indazol-5-yl)amino]-5,6,7,8-tetrahydro[1]benzothieno[2,3-d]pyrimidine-7-carboxylic acid]	73
O=C(NCCc1ccncc1)C1CCc2c(sc3ncnc(Nc4ccc5[nH]ncc5c4)c23)C1 (stereo not drawn) [Example 36, 4-(1H-Indazol-5-ylamino)-N-[2-(pyridin-4-yl)ethyl]-5,6,7,8-tetrahydro[1] benzothieno [2,3-d]pyrimidine-7-carboxamide]	6
COc1cc2[nH]ncc2cc1Nc1ncnc2sc3c(c12)CCC(C(=O)N1CC2CC1CO2)C3 (mixture of isomers) [Example 262, {(7RS)-4-[(6-Methoxy-1H-indazol-5-yl)amino]-5,6,7,8-tetrahydro[1]benzothieno[2,3-d]pyrimidin-7-yl}[(1S,4S)-2-oxa-5-azabicyclo[2.2.1]hept-5-yl]methanone]	6.1
COc1cc2[nH]ncc2cc1Nc1ncnc2sc3c(c12)CCC(C(=O)N1CC(C#N)C1)C3 (racemic) [Example 237, (RS)-1-({4-[(6-Methoxy-1H-indazol-5-yl)amino]-5,6,7,8-tetrahydro[1]benzothieno[2,3-d]pyrimidin-7-yl}carbonyl)azetidine-3-carbonitrile]	0.3
CCOc1cc2[nH]ncc2cc1Nc1ncnc2sc3c(c12)CCC(C(=O)N(C)C1CC1)C3 (racemic) [Example 235, (RS)—N—Cyclopropyl-4-[(6-ethoxy-1H-indazol-5-yl)amino]-N-methyl-5,6,7,8-tetrahydro[1]benzothieno[2,3-d]pyrimidine-7-carboxamide]	0.5
CCOc1cc2[nH]ncc2cc1Nc1ncnc2sc3c(c12)CCC(C(=O)N(C)C(C)(C)C)C3 (racemic) [Example 238, (RS)—N-tert-Butyl-4-[(6-ethoxy-1H-indazol-5-yl)amino]-N-methyl-5,6,7,8-tetrahydro[1]benzothieno[2,3-d]pyrimidine-7-carboxamide]	1.5

Now from value to compound:

IC50 [nM]	Structure (SMILES)
8.1	O=C(NCCN1CCCC1)C1CCc2c(sc3ncnc(Nc4ccc5[nH]ncc5c4)c23)C1 (racemic) [Example 98, (RS)-4-(1H-indazol-5-ylamino)-N-[2-(pyrrolidin-1-yl)ethyl]-5,6,7,8-tetrahydro[1]benzothieno[2,3-d]pyrimidine-7-carboxamide]
24.1	O=C(Nc1cc[nH]n1)C1CCc2c(sc3ncnc(Nc4ccc5[nH]ncc5c4)c23)C1 (racemic) [Example 89, (RS)-4-(1H-indazol-5-ylamino)-N-(1H-pyrazol-3-yl)-5,6,7,8-tetrahydro[1]benzothieno[2,3-d]pyrimidine-7-carboxamide]
16.4	CCOC(=O)N1CCN(C(=O)C2CCc3c(sc4ncnc(Nc5ccc6[nH]ncc6c5)c34)C2)CC1 (racemic) [Example 103, (RS)-ethyl4-{[4-(1H-indazol-5-ylamino)-5,6,7,8-tetrahydro[1]benzothieno[2,3-d]pyrimidin-7-yl]carbonyl}piperazine-1-carboxylate]
19.5	CN(C)C(=O)CN1CCN(C(=O)C2CCc3c(sc4ncnc(Nc5ccc6[nH]ncc6c5)c34)C2)CC1 (racemic) [Example 143, (RS)-2-(4-{[4-(1H-indazol-5-ylamino)-5,6,7,8-tetrahydro[1]benzothieno[2,3-d]pyrimidin-7-yl]carbonyl}piperazin-1-yl)-N,N-dimethylacetamide]
10.5	O=C(NCCN1CCNC1=O)C1CCc2c(sc3ncnc(Nc4ccc5[nH]ncc5c4)c23)C1 (racemic) [Example 125, (RS)-4-(1H-indazol-5-ylamino)-N-[2-(2-oxoimidazolidin-1-yl)ethyl]-5,6,7,8-tetrahydro[1]benzothieno[2,3-d]pyrimidine-7-carboxamide]
15.6	O=C(NC1COC1)C1CCc2c(sc3ncnc(Nc4ccc5[nH]ncc5c4)c23)C1 (racemic) [Example 78, (RS)-4-(1H-Indazol-5-ylamino)-N-(oxetan-3-yl)-5,6,7,8-tetrahydro[1]benzothieno[2,3-d]pyrimidine-7-carboxamide]
5	O=C(NCc1cccnc1)C1CCc2c(sc3ncnc(Nc4ccc5[nH]ncc5c4)c23)C1 (stereo not drawn) [Example 32, 4-(1H-Indazol-5-ylamino)-N-(pyridin-3-ylmethyl)-5,6,7,8-tetrahydro[1] benzothieno [2,3-d]pyrimidine-7-carboxamide]
8	CC(=O)N[C@@H]1CCN(C(=O)C2CCc3c(sc4ncnc(Nc5ccc6[nH]ncc6c5)c34)C2)C1 (mixture of isomers) [Example 124, (RS)-N-(1-{[4-(1H-indazol-5-ylamino)-5,6,7,8-tetrahydro[1]benzothieno[2,3-d]pyrimidin-7-yl]carbonyl}pyrrolidin-3-yl)acetamide]
6	O=C(NCC1CC1)C1CCc2c(sc3ncnc(Nc4ccc5[nH]ncc5c4)c23)C1 (stereo not drawn) [Example 7, N-(Cyclopropylmethyl)-4-(1H-indazol-5-ylamino)-5,6,7,8-tetrahydro[1]benzothieno[2,3-d]pyrimidine-7-carboxamide]
11.2	Cn1nccc1NC(=O)C1CCc2c(sc3ncnc(Nc4ccc5[nH]ncc5c4)c23)C1 (racemic) [Example 117, (RS)-4-(1H-indazol-5-ylamino)-N-(1-methyl-1H-pyrazol-5-yl)-5,6,7,8-tetrahydro[1]benzothieno[2,3-d]pyrimidine-7-carboxamide]
0.9	CCOc1cc2[nH]ncc2cc1Nc1ncnc2sc3c(c12)CCC(C(=O)N1CC[C@H](O)C1)C3 (mixture of isomers) [Example 246, {(7RS)-4-[(6-Ethoxy-1H-indazol-5-yl)amino]-5,6,7,8-tetrahydro[1]benzothieno[2,3-d]pyrimidin-7-yl}[(3S)-3-hydroxypyrrolidin-1-yl]methanone]
8.6	O=C(C1CCc2c(sc3ncnc(Nc4ccc5[nH]ncc5c4)c23)C1)N1CC(N2CCCCC2)C1 (racemic) [Example 200, (RS)-[4-(1H-indazol-5-ylamino)-5,6,7,8-tetrahydro[1]benzothieno[2,3-d]pyrimidin-7-yl][3-(piperidin-1-yl)azetidin-1-yl]methanone]
15.9	CCN1CCN(C(=O)C2CCc3c(sc4ncnc(Nc5ccc6[nH]ncc6c5)c34)C2)CC1 (racemic) [Example 119, (RS)-(4-ethylpiperazin-1-yl)[4-(1H-indazol-5-ylamino)-5,6,7,8-tetrahydro[1]benzothieno[2,3-d]pyrimidin-7-yl]methanone]
7.3	COCC1CCCN1C(=O)C1CCc2c(sc3ncnc(Nc4ccc5[nH]ncc5c4)c23)C1 (racemic) [Example 204, (RS)-[4-(1H-indazol-5-ylamino)-5,6,7,8-tetrahydro[1]benzothieno[2,3-d]pyrimidin-7-yl][2-(methoxymethyl)pyrrolidin-1-yl]methanone]
